Source: patent US9060997B2, “Antifolate compounds for the treatment of melanoma” (UNIVERSIDAD DE MURCIA, priority 2007, dated 2015)

Columns and labels:
human tyrosinase = biological target: T1, human tyrosinase (Homo sapiens, UniProt P14679); test: Tyrosinase-catalyzed oxidation, steady-state kinetics; type: biochemical; set-up: Human tyrosinase was purified to homogeneity from SkMel-28 (1×10^8 cells) following the protocol designed by Yurkow and Laskin (1989); endogenous in cells; host or cells: SkMel-28; conditions: human tyrosinase from SkMel-28, pH 5.5, 25° C.; read-out: Michaelis-Menten constant (Km)
T1 sequence (P14679 19-529): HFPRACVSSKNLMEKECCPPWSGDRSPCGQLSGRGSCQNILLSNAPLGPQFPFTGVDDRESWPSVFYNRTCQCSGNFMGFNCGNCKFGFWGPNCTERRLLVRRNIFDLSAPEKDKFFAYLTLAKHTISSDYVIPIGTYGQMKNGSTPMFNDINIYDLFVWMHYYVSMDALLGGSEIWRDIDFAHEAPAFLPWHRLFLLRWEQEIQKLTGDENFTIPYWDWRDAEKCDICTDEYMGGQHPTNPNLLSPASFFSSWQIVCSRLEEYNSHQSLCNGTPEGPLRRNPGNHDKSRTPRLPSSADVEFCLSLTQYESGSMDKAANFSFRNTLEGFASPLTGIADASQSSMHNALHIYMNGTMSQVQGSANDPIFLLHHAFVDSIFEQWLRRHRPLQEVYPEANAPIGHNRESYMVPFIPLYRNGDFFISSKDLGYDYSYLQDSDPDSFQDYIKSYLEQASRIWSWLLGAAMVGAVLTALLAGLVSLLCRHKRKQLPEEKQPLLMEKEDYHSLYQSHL
Procedure: The arrow represents the absorbance direction and the time between recordings was 1 min. […] Data was fitted to the Michaelis-Menten equation using non-lineal regression analysis.
Human tyrosinase was purified to homogeneity from SkMel-28 (1×10^8 cells) following the protocol designed by Yurkow and Laskin (1989). TMECG oxidation catalyzed by human tyrosinase was followed using a Perkin-Elmer Lambda-35 spectrophotometer. Steady-state kinetic constants were obtained by measuring the initial rates of TMECG oxidation at 412 nm in 30 mM sodium acetate buffer, pH 5.5 and 25° C.

[1] = system: B16/F10 melanoma cell tumours; test: Primary tumour model, B16/F10 melanoma in C57/B16 mice; type: in vivo, mouse
Source text: Translational therapy was then designed to probe the efficacy of this combination on mice induced melanoma tumor. Injection of 5×10^5 B16/F10 melanoma cells in the back of C57/B16 mice formed a blackish tumor mass, which in untreated control mice reached to a tumor area of 3.7±0.7 and 9.3±1.1 cm2 in female and male, respectively, after 21 days of cells inoculation.

rHDHFR = biological target: T2, rHDHFR (Homo sapiens, UniProt P00374); test: rHDHFR inhibition, progress curves; type: biochemical
T2 construct: purchased Sigma
T2 sequence (P00374 1-187): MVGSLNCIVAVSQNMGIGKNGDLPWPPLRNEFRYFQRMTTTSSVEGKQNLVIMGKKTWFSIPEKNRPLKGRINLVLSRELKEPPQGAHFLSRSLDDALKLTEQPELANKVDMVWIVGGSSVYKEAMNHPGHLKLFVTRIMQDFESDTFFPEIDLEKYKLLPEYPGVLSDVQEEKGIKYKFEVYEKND
Procedure: The experiments were carried out in the same buffer as fluorescence experiments in the presence of NADPH (100 μM), DHF (10 μM), and rHDHFR (1.5 nM).
The activity of rHDHFR was determined at 25° C. by following the decrease in the absorbance of NADPH and DHF at 340 nm (ε=11800 M-1 cm−1) (Stone and Morrison, 1986). Progress curves were obtained under ordered conditions ([NADPH]>>[DHF]). rHDHFR inhibition constants were calculated as described by Navarro-Perán et al., 2005b. The dissociation constant for the binding of inhibitors to free rHDHFR was determined at 25° C. by fluorescence titration in an automatic-scanning Perkin-Elmer LS50B spectrofluorimeter. Fluorescence emission spectra were recorded when rHDHFR fluorescence was excited at 290 nm. Stopped-flow fluorescence experiments were carried out using an Applied Photophysics Ltd. Pi-Star 180 spectrometer with a stopped-flow unit at 25° C.

[2] = system: γ-glutamylcysteine synthetase (GCS) mRNA; test: GCS mRNA determination in SkMel-28; type: cell-based, human; conditions: SkMel-28 treated with TMECG
Procedure: Histograms compare the estimated relative levels of the mRNA with respect to that of β-actin. Values represent the number of copies of mRNA per each 1×10^6 copies of β-actin.
cDNA samples (1 μL) were used for real-time PCR in a total volume of 20 μL using SYBR Green Reagent (Applied Biosystems) and specific primers on a 7500 Real Time PCR System of Applied Biosystems. The PCR amplification cycles included denaturation 95° C., 15 min; to activate HotStar Taq DNA polymerase and to minimize primer-dimer contribution), and amplification [over 40-50 cycles including denaturation (94° C.; 30 s), annealing (55° C.; 30 s), and extension (72° C.; 1 min)]. All PCR reactions were performed in triplicate and from at least two independent experiments. Non-RT control and negative control samples (without template) were processed in the same manner. The specificity of the amplification was verified by melting curve analysis for all samples, and occasionally by agarosa gel electrophoresis. Amplification of target gene sequences were compared against serial dilutions of know quantities of their purified cDNA fragments, and normalized to the abundance of the house-keeping gene β-actin.

## COc1cc(C(=O)O[C@@H]2Cc3c(O)cc(O)cc3O[C@@H]2c2ccc(O)c(O)c2)cc(OC)c1OC [TMECG, 3-O-(3,4,5-trimethoxybenzoyl)-(−)-epicatechin]
Human tyrosinase
  Km: 120 ± 20 µM
[1]; females, TMECG 2.5 mg/Kg/d
  tumor mass reduction: 27%
[1]; male mice
  effect of single treatments: not effective
rHDHFR; decrease of KI to KI* by further EI-complex reactions
  Decrease % further EI reactions: 19 −fold
rHDHFR; read-out: effective inhibition constant (KI*)
  Ki: 0.11 µM
[2]
  GCS mRNA, mean value: 26300 copies per million of copies of β-actin mRNA
